Assay results as given in ChEMBL document CHEMBL3351581, “Synthesis of prenylated quinolinecarboxylic acid derivatives and their anti-obesity activities” (Bioorg Med Chem, 2015).
Activity calls are given as the source filed them. No cut-off for these calls is given here.

How the values were obtained:
Liver [1] = test: Increase in oxygen consumption rate of mitochondrial state 4 respiration in ICR mouse liver fraction at 20 uM by Clark-type oxygen electrode assay; assay type: functional
Mus musculus [2] = test: Toxicity in ICR mouse assessed as lesions in kidney at 0.4 to 0.8 mg/kg/week, ip for 6 weeks measured after 6 weeks relative to control; assay type: organism-based; parameters: route intraperitoneal; details: in vivo, 1008 h
Liver [3] = test: Toxicity in ICR mouse liver fraction assessed as ROS production at 1 to 20 uM by Clark-type oxygen electrode assay; assay type: tissue-based
Liver [4] = test: Increase in oxygen consumption rate of mitochondrial state 4 respiration in ICR mouse liver fraction at 10 uM by Clark-type oxygen electrode assay; assay type: functional
Liver [5] = test: Increase in oxygen consumption rate of mitochondrial state 3 respiration in ICR mouse liver fraction at 20 uM by Clark-type oxygen electrode assay; assay type: functional
Mus musculus [6] = test: Toxicity in ICR mouse assessed as lesions in liver at 0.4 to 0.8 mg/kg/week, ip for 6 weeks measured after 6 weeks relative to control; assay type: organism-based; parameters: route intraperitoneal; details: in vivo, 1008 h
Mus musculus [7] = test: Antiobesity activity in ICR mouse assessed as body weight reduction at 0.4 to 0.8 mg/kg/week, ip for 6 weeks measured after 6 weeks relative to control; assay type: functional; parameters: scale not given: the % may be the effect or the level left; details: route intraperitoneal

SMILES	Activity (Liver [1])	further results
COc1cc(C(=O)OC/C=C(\C)CCC=C(C)C)nc2c(OCC=C(C)C)cccc12	inactive	
COc1cc(C(=O)OCC=C(C)C)nc2c(OC3CCCC3)cccc12	inactive	
COc1cc(C(=O)OCC=C(C)C)nc2c(OC/C=C(\C)CCC=C(C)C)cccc12	inactive	
COc1cc(C(=O)NCC=C(C)C)nc2c(OCC=C(C)C)cccc12	inactive	
COC(=O)c1cc(OC)c2cccc(OCC=C(C)C)c2n1	inactive	
COc1cc(C(=O)OC2CCCC2)nc2c(OCC=C(C)C)cccc12	inactive	
COc1cc(C(=O)OCC=C(C)C)nc2c(OCCC(C)C)cccc12	inactive	
COc1cc(C(=O)OCC=C(C)C)nc2c(OC)cccc12	inactive	
CC(C)=CCOC(=O)c1cc(OCC=C(C)C)c2cccc(OCC=C(C)C)c2n1	Active	Activity (Mus musculus [2]): Non-toxic; Activity (Liver [3]): Non-toxic; Activity (Liver [4]): Active; Activity (Liver [5]): inactive; Activity (Mus musculus [6]): Non-toxic; Activity (Mus musculus [7]): 6%
CCCCCOc1cc(C(=O)OCC=C(C)C)nc2c(OCC=C(C)C)cccc12	Active	
COc1cc(C(=O)OCCC(C)C)nc2c(OCC=C(C)C)cccc12	inactive	
COc1cc(C(=O)OCC=C(C)C)nc2c(OCC=C(C)C)cccc12	Active	Activity (Liver [3]): Non-toxic; Activity (Liver [5]): inactive
